Laboratory results taken from DBAASP.
In brackets after ≈: the same amount, converted by molar mass. One block for each molecule: values may come before it.

Experiments:
Test in all cases: ≥ marks a high value that may be exact or a test limit, other limits are often not marked, values filed in µg/mL are converted to µM
[1] = test system: Pseudomonas aeruginosa PAO1
[2] = test system: Escherichia coli BL21
[3] = test system: Streptococcus pyogenes M1T1 5448
[4] = test system: Enterococcus faecium ATCC 700221
[5] = test system: Staphylococcus aureus ATCC 33591
[6] = test system: Pseudomonas aeruginosa ATCC 19660
[7] = test system: Streptococcus pneumoniae ATCC 49619
[8] = test system: Pseudomonas aeruginosa ATCC 27853
[9] = test system: Klebsiella aerogenes ATCC 13048
[10] = test system: Acinetobacter baumannii ATCC 17978D-5
[11] = test system: Staphylococcus epidermidis ATCC 51625
[12] = test system: Streptococcus mutans ATCC 25175
[13] = test system: Escherichia coli ATCC 25922
[14] = test system: Staphylococcus aureus ATCC 12600
[15] = test system: Enterococcus faecalis ATCC 29212
[16] = test system: Staphylococcus aureus
[17] = test system: Streptococcus agalactiae
[18] = test system: Escherichia coli UB1005
[19] = test system: Salmonella enterica subsp. enterica serovar Typhimurium ATCC 14028
[20] = test system: Staphylococcus aureus ATCC 43300
[21] = test system: Staphylococcus aureus ATCC 29213
[22] = test system: Salmonella enterica subsp. enterica serovar Typhimurium C77-31
[23] = test system: Staphylococcus epidermidis ATCC 12228
[24] = test system: Salmonella enterica subsp. enterica serovar Choleraesuis CVCC 503
[25] = test system: Salmonella enterica subsp. enterica serovar Pullorum C79-13
[26] = test system: Pseudomonas aeruginosa
[27] = test system: Stenotrophomonas maltophilia
[28] = test system: Achromobacter xylosoxidans
[29] = test system: Bacillus subtilis CMCC 63501
[30] = test system: Escherichia coli K99
[31] = test system: Escherichia coli K88
[32] = test system: Escherichia coli 078
[33] = test system: Staphylococcus aureus ATCC 25923

Compound: CC[C@H](C)[C@H](NC(=O)[C@H](CCCCN)NC(=O)[C@H](CCCCN)NC(=O)[C@H](CCCCN)NC(=O)[C@H](CC(C)C)NC(=O)[C@H](CCCN=C(N)N)NC(=O)[C@H](CCC(N)=O)NC(=O)[C@H](Cc1ccccc1)NC(=O)[C@@H](NC(=O)[C@@H](NC(=O)[C@H](CCC(=O)O)NC(=O)[C@H](CCCCN)NC(=O)CNC(=O)[C@H](C)N)[C@@H](C)O)[C@@H](C)CC)C(=O)N[C@@H](CCC(N)=O)C(=O)N[C@@H](CCC(=O)O)C(=O)N[C@@H](CCCCN)C(=O)NCC(=O)N[C@@H](CCCCN)C(=O)N[C@@H](CCCN=C(N)N)C(=O)N[C@@H](C)C(=O)N[C@H](C(=O)N[C@H](C(=O)N[C@@H](Cc1c[nH]c2ccccc12)C(=O)N[C@@H](Cc1c[nH]c2ccccc12)C(=O)O)[C@@H](C)CC)[C@@H](C)O [AGKETIFQRLKKKIQEKGKRATIWW]
MIC [1]: 16 µM (≈ 48.7 µg/mL)
MIC [2]: 4 µM (≈ 12.2 µg/mL)
MIC [3]: 0.25 µM (≈ 0.761 µg/mL)

Compound: C[C@H](NC(=O)[C@H](Cc1ccccc1)NC(=O)[C@H](C)NC(=O)[C@@H](N)Cc1ccccc1)C(=O)N[C@@H](Cc1ccccc1)C(=O)N[C@@H](CCCCN)C(=O)N[C@@H](C)C(=O)N[C@@H](Cc1ccccc1)C(=O)N[C@@H](CCCCN)C(=O)N[C@@H](CCCCN)C(=O)N[C@@H](C)C(=O)N[C@@H](Cc1ccccc1)C(=O)N[C@@H](CCCCN)C(=O)N[C@@H](CCCCN)C(=O)N[C@@H](Cc1ccccc1)C(=O)N[C@@H](CCCCN)C(=O)N[C@@H](CCCCN)C(=O)N[C@@H](C)C(=O)N[C@@H](Cc1ccccc1)C(=O)N[C@@H](CCCCN)C(=O)N[C@@H](CCCCN)C(=O)N[C@@H](C)C(=O)N[C@@H](Cc1ccccc1)C(=O)NCC(=O)N1CCC[C@H]1C(=O)N[C@@H](CS)C(=O)O [FAFAFKAFKKAFKKFKKAFKKAFGPC]
MIC [4]: 21.1 µM (≈ 64 µg/mL)
MIC [5]: 21.1 µM (≈ 64 µg/mL)
MIC [6]: 21.1 µM (≈ 64 µg/mL)
MIC [7]: 21.1 µM (≈ 64 µg/mL)
MIC [8]: > 21.1 µM
MIC [9]: 21.1 µM (≈ 64 µg/mL)
MIC [10]: 21.1 µM (≈ 64 µg/mL)
MIC [11]: 21.1 µM (≈ 64 µg/mL)

Compound: CC[C@H](C)[C@H](NC(=O)[C@H](C)NC(=O)CNC(=O)[C@H](Cc1ccccc1)NC(=O)[C@H](CC(C)C)NC(=O)CN)C(=O)N[C@@H](C)C(=O)NCC(=O)N[C@@H](Cc1ccccc1)C(=O)N[C@H](C(=O)N[C@@H](CCCCN)C(=O)NCC(=O)NCC(=O)N[C@@H](Cc1c[nH]c2ccccc12)C(=O)N1CCC[C@H]1C(=O)NCC(=O)N[C@@H](CC(C)C)C(=O)N[C@H](C(=O)N[C@@H](CCCCN)C(=O)NCC(N)=O)C(C)C)[C@@H](C)CC [GLFGAIAGFIKGGWPGLVKG]
MIC [12]: 11.3 µM (≈ 22 µg/mL)
MIC [13]: 16 µM (≈ 31.1 µg/mL)
MIC [8]: > 64.3 µM
MIC [14]: 16 µM (≈ 31.1 µg/mL)

Compound: CC[C@H](C)[C@H](NC(=O)[C@H](CCCCN)NC(=O)[C@H](C)NC(=O)[C@H](CCCN=C(N)N)NC(=O)[C@H](CC(C)C)NC(=O)[C@H](CCCN=C(N)N)NC(=O)[C@@H](NC(=O)[C@H](CCCCN)NC(=O)[C@@H](NC(=O)[C@H](CCCCN)NC(=O)[C@H](C)NC(=O)[C@H](CCCN=C(N)N)NC(=O)[C@H](CC(C)C)NC(=O)[C@H](CCCCN)NC(=O)[C@H](Cc1ccccc1)NC(=O)CNC(=O)[C@@H](N)CCSC)[C@@H](C)CC)C(C)C)C(=O)N[C@@H](CCCCN)C(=O)N[C@@H](CC(C)C)C(=O)O [MGFKLRAKIKVRLRAKIKL]
MIC [4]: 28.2 µM (≈ 64 µg/mL)
MIC [5]: 28.2 µM (≈ 64 µg/mL)
MIC [6]: 28.2 µM (≈ 64 µg/mL)
MIC [7]: 28.2 µM (≈ 64 µg/mL)
MIC [8]: > 28.2 µM
MIC [9]: 28.2 µM (≈ 64 µg/mL)
MIC [10]: 28.2 µM (≈ 64 µg/mL)
MIC [11]: 1.76 µM (≈ 4 µg/mL)

Compound: CC[C@H](C)[C@H](NC(=O)[C@H](CCCCN)NC(=O)[C@H](CCC(N)=O)NC(=O)CNC(=O)[C@@H](NC(=O)[C@H](CCCCN)NC(=O)[C@H](CCCCN)NC(=O)[C@H](CC(C)C)NC(=O)[C@H](CCCCN)NC(=O)[C@H](CCC(=O)O)NC(=O)[C@H](CCCCN)NC(=O)[C@@H](NC(=O)[C@H](CCCCN)NC(=O)[C@H](CC(N)=O)NC(=O)[C@H](CCCN=C(N)N)NC(=O)[C@H](Cc1ccccc1)NC(=O)[C@H](CCCCN)NC(=O)[C@H](CCCN=C(N)N)NC(=O)[C@H](CC(C)C)NC(=O)[C@H](CCCN=C(N)N)NC(=O)[C@H](CCCCN)NC(=O)[C@@H](N)CCCN=C(N)N)[C@@H](C)CC)[C@@H](C)CC)C(=O)O [RKRLRKFRNKIKEKLKKIGQKI]
MIC [26]: 1.42 µM (≈ 4 µg/mL)
MIC [27]: 4.03 µM (≈ 11.3 µg/mL)
MIC [28]: 2.01 µM (≈ 5.66 µg/mL)

Compound: CC[C@H](C)[C@H](NC(=O)[C@H](Cc1c[nH]c2ccccc12)NC(=O)[C@H](CCCCN)NC(=O)[C@H](CC(C)C)NC(=O)[C@@H](NC(=O)[C@H](Cc1c[nH]c2ccccc12)NC(=O)CNC(=O)[C@@H](NC(=O)[C@H](CCCCN)NC(=O)[C@H](Cc1c[nH]c2ccccc12)NC(=O)[C@H](CC(C)C)NC(=O)[C@@H](N)CCCN=C(N)N)[C@@H](C)CC)C(C)C)C(N)=O [RLWKIGWVLKWI]
MIC [15]: 4 µM (≈ 6.39 µg/mL)
MIC [13]: 16 µM (≈ 25.6 µg/mL)
MIC [29]: 2 µM (≈ 3.19 µg/mL)
MIC [30]: 4 µM (≈ 6.39 µg/mL)
MIC [18]: 16 µM (≈ 25.6 µg/mL)
MIC [19]: 8 µM (≈ 12.8 µg/mL)
MIC [21]: 8 µM (≈ 12.8 µg/mL)
MIC [22]: 16 µM (≈ 25.6 µg/mL)
MIC [23]: 16 µM (≈ 25.6 µg/mL)
MIC [31]: 2 µM (≈ 3.19 µg/mL)
MIC [32]: 4 µM (≈ 6.39 µg/mL)
MIC [33]: 16 µM (≈ 25.6 µg/mL)
MIC [25]: 2 µM (≈ 3.19 µg/mL)

The next lines start with results.

MIC [15]: > 64 µM
MIC [13]: 16 µM (≈ 26.6 µg/mL)
MIC [16]: > 64 µM
MIC [17]: ≥ 64 µM
MIC [18]: 16 µM (≈ 26.6 µg/mL)
MIC [19]: 32 µM (≈ 53.3 µg/mL)
MIC [20]: > 64 µM
MIC [21]: > 64 µM
MIC [22]: ≥ 32 µM
MIC [23]: > 64 µM
MIC [25]: ≥ 64 µM
Compound: CC[C@H](C)[C@H](N)C(=O)N[C@H](C(=O)N[C@@H](CS)C(=O)N[C@@H](CCCN=C(N)N)C(=O)N[C@@H](CCCCN)C(=O)N1CCC[C@H]1C(=O)N[C@H](C(=O)N[C@H](C(=O)N[C@@H](CS)C(=O)N[C@@H](CCCN=C(N)N)C(=O)N[C@@H](CCCCN)C(=O)N1CCC[C@H]1C(=O)N[C@H](C(=O)N[C@H](C(N)=O)[C@@H](C)CC)[C@@H](C)CC)[C@@H](C)CC)[C@@H](C)CC)[C@@H](C)CC [IICRKPIICRKPII]
MIC [24]: ≥ 64 µM

MIC [15]: > 64 µM
MIC [13]: > 64 µM
MIC [16]: > 64 µM
MIC [17]: ≥ 64 µM
MIC [18]: ≥ 64 µM
MIC [19]: > 64 µM
MIC [20]: > 64 µM
MIC [21]: > 64 µM
MIC [22]: ≥ 64 µM
MIC [23]: > 64 µM
MIC [25]: ≥ 64 µM
Compound: CC(C)[C@H](N)C(=O)N[C@@H](CS)C(=O)N[C@@H](CCCN=C(N)N)C(=O)N[C@@H](CCCCN)C(=O)N1CCC[C@H]1C(=O)N[C@H](C(=O)N[C@H](C(=O)N[C@@H](CS)C(=O)N[C@@H](CCCN=C(N)N)C(=O)N[C@@H](CCCCN)C(=O)N1CCC[C@H]1C(=O)N[C@H](C(N)=O)C(C)C)C(C)C)C(C)C [VCRKPVVCRKPV]
MIC [24]: ≥ 64 µM
